The source of these data is US20230143604A1, “QW DOSING OF GIP RECEPTOR AGONIST PEPTIDE COMPOUNDS AND USES THEREOF” (TAKEDA PHARMACEUTICAL COMPANY LIMITED, priority 2020, published 2023).

One series in a line: physchem. The procedure, abridged:
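Solubility at pH 7.4 determined by stepwise addition of 200 mM phosphate buffer in 100 μL increments to 3 mg peptide, mixing briefly each time, until no insoluble material remained, then measured by liquid chromatography.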

The next series deals with T1, human GLP-1R (Homo sapiens, UniProt P43220).
T1 construct: HEK-293T cells overexpressing full-length human GLP-1R; FLAG (N); host or cells: HEK-293T
In words: Human GLP1R agonist activity, intracellular cAMP accumulation. The conditions noted are these: HEK-293T cells overexpressing human GLP-1R, 1 hr. The class given is cell-based. In a few lines: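 cAMP accumulation is measured by HTRF after a 1 hr, room-temperature, dark exposure of thawed cells (4×10^5 cells/mL in Krebs Ringer buffer) to compound. Activity is scaled between DMSO alone as 0% and 1 nm GLP-1 as 100%.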
A general note: cAMP levels reflect the balance of adenylyl cyclase and phosphodiesterase activity.

A further series has as its system C57BL/6J mice. In words: Oral glucose tolerance test (OGTT). The class given is in vivo. The conditions noted are these: 3 nmol/kg s.c., 24 hours before glucose loading. On the procedure:
An oral glucose tolerance test (OGTT) was carried out using C57BL/6J mice with a 50% dextrose solution dosed at 5 ml/kg. Testing concentrations of 0.1 nmol/kg, 0.3 nmmol/kg, 3 nmol/kg or 10 nmol/kg were selected depending on the peptide. Each peptide or a vehicle (control group) was subcutaneously administered 24 hours (unless shown otherwise) before glucose loading and the blood glucose was measured at 0, 15, 30, and 60 minutes after glucose dosing.
% inhibition=(1−(AUC cpd−AUC naïve/AUC veh−AUC naïve))×100.

The mark [1] stands for this setting: read-out: Human GLP1R cAMP EC50, HEK293T.

Where two headings read alike, the source gives them in different places.

T1 sequence (P43220 24-463): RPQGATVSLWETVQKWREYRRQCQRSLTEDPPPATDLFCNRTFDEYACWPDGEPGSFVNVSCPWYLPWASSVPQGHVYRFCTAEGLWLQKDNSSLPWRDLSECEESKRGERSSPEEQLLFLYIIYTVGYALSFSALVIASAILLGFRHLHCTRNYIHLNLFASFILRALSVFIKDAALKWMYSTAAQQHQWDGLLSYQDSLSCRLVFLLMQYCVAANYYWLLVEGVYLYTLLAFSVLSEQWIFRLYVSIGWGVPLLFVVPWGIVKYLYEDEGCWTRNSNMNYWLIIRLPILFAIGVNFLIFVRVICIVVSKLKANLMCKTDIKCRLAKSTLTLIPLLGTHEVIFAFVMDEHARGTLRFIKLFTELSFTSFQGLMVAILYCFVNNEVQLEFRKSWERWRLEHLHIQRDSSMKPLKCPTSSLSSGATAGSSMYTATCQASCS

As a reminder, the solubility is how much of the substance goes into solution per volume. Low values mean little dissolved substance, high ones much dissolved substance. By EC50 is commonly meant the concentration needed to bring the measured effect to its halfway point. In the case of `CC[C@H](C)[C@H](NC(=O)[C@H](Cc1ccccc1)NC(=O)[C@@H](NC(=O)CNC(=O)[C@H](CCC(=O)O)NC(=O)C(C)(C)NC(=O)[C@H](Cc1ccc(O)cc1)NC)[C@@H](C)O)C(=O)N[C@@H](CO)C(=O)N[C@@H](CC(=O)O)C(=O)N[C@@H](Cc1ccc(O)cc1)C(=O)N[C@@H](CO)C(=O)N[C@H](C(=O)NC(C)(C)C(=O)N[C@@H](CC(C)C)C(=O)N[C@@H](CC(=O)O)C(=O)N[C@@H](CO)C(=O)N[C@@H](CCCCNC(=O)CNC(=O)CNC(=O)CNC(=O)CNC(=O)CNC(=O)CNC(=O)CCCCCCCCCCCCCCCCC(=O)O)C(=O)N[C@@H](C)C(=O)N[C@@H](CCC(N)=O)C(=O)NC(C)(C)C(=O)N[C@@H](CC(=O)O)C(=O)N[C@@H](Cc1ccccc1)C(=O)N[C@H](C(=O)N[C@@H](CC(N)=O)C(=O)N[C@@H](Cc1c[nH]c2ccccc12)C(=O)N[C@@H](CC(C)C)C(=O)N[C@@H](CC(C)C)C(=O)N[C@@H](C)C(=O)N[C@@H](CCC(N)=O)C(=O)N[C@@H](CCCNC(=N)N)C(=O)NCC(=O)O)C(C)C)[C@@H](C)CC` [Compound 64], the solubility in “physchem” (pH 7.4) is ≥ 15 mg/mL; in “physchem” (pH 7.4, aqueous buffer), ≥ 30 mg/mL. The EC50 on human GLP-1R (setting [1]) came to 110 nM. In the series with C57BL/6J mice, the “Oral Glucose Tolerance Test Percent decrease in blood glucose AUC (%) over 60 mins” value is 53% (3 nmol/kg).
`CC[C@H](C)[C@H](NC(=O)[C@H](Cc1ccccc1)NC(=O)[C@@H](NC(=O)CNC(=O)[C@H](CCC(=O)O)NC(=O)C(C)(C)NC(=O)[C@@H](N)Cc1ccc(O)cc1)[C@@H](C)O)C(=O)N[C@@H](CO)C(=O)N[C@@H](CC(=O)O)C(=O)N[C@@H](Cc1ccc(O)cc1)C(=O)N[C@@H](CO)C(=O)N[C@H](C(=O)NC(C)(C)C(=O)N[C@@H](CCCCNC(=O)CNC(=O)CNC(=O)CNC(=O)CNC(=O)CNC(=O)CCCCCCCCCCCCCCCCC(=O)O)C(=O)N[C@@H](CC(=O)O)C(=O)N[C@@H](CCCNC(=N)N)C(=O)NC(C)(C)C(=O)N[C@@H](C)C(=O)N[C@@H](CCC(N)=O)C(=O)NC(C)(C)C(=O)N[C@@H](CC(=O)O)C(=O)N[C@@H](Cc1ccccc1)C(=O)N[C@H](C(=O)N[C@@H](CCC(=O)O)C(=O)N[C@@H](Cc1c[nH]c2ccccc12)C(=O)N[C@@H](CC(C)C)C(=O)N[C@@H](CC(C)C)C(=O)N[C@@H](C)C(=O)N[C@@H](CCC(N)=O)C(=O)N[C@@H](CCCNC(=N)N)C(=O)NCC(=O)O)C(C)C)[C@@H](C)CC` [Compound 139]: the solubility in “physchem” (pH 7.4) was ≥ 15 mg/mL; in the series “physchem” (pH 7.4, aqueous buffer), ≥ 30 mg/mL. Also, at human GLP-1R (setting [1]), the EC50 came out at 8.91 nM. Further, in the series on C57BL/6J mice, the “Oral Glucose Tolerance Test Percent decrease in blood glucose AUC (%) over 60 mins” value is on record as 93% (3 nmol/kg).
Turning to `CC[C@H](C)[C@H](NC(=O)[C@H](Cc1ccccc1)NC(=O)[C@@H](NC(=O)CNC(=O)[C@H](CCC(=O)O)NC(=O)C(C)(C)NC(=O)[C@H](Cc1ccc(O)cc1)NC)[C@@H](C)O)C(=O)N[C@@H](CO)C(=O)N[C@@H](CC(=O)O)C(=O)N[C@@H](Cc1ccc(O)cc1)C(=O)N[C@@H](CO)C(=O)N[C@H](C(=O)NC(C)(C)C(=O)N[C@@H](CCCCNC(=O)CNC(=O)CNC(=O)CNC(=O)CNC(=O)CNC(=O)CCCCCCCCCCCCCCCCC(=O)O)C(=O)N[C@@H](CC(=O)O)C(=O)N[C@@H](CCCNC(=N)N)C(=O)NC(C)(C)C(=O)N[C@@H](C)C(=O)N[C@@H](CCC(N)=O)C(=O)NC(C)(C)C(=O)N[C@@H](CC(=O)O)C(=O)N[C@@H](Cc1ccccc1)C(=O)N[C@H](C(=O)N[C@@H](CC(N)=O)C(=O)N[C@@H](Cc1c[nH]c2ccccc12)C(=O)N[C@@H](CC(C)C)C(=O)N[C@@H](CC(C)C)C(=O)N[C@@H](C)C(=O)N[C@@H](CCC(N)=O)C(=O)N[C@@H](CO)C(=O)NCC(=O)O)C(C)C)[C@@H](C)CC` [Compound 53], the solubility in “physchem” (pH 7.4) is ≥ 15 mg/mL; in the series “physchem” (pH 7.4, aqueous buffer), ≥ 30 mg/mL. In addition, at human GLP-1R (setting [1]), the concentration giving a half-maximal response (EC50) turned out to be 47.9 nM. Besides, in the series on C57BL/6J mice, the “Oral Glucose Tolerance Test Percent decrease in blood glucose AUC (%) over 60 mins” value is 59% (3 nmol/kg).
Consider `CC[C@H](C)[C@H](NC(=O)[C@H](CO)NC(=O)[C@H](Cc1ccc(O)cc1)NC(=O)[C@H](CC(=O)O)NC(=O)[C@H](CO)NC(=O)[C@@H](NC(=O)[C@H](Cc1ccccc1)NC(=O)[C@@H](NC(=O)CNC(=O)[C@H](CCC(=O)O)NC(=O)C(C)(C)NC(=O)[C@H](Cc1ccc(O)cc1)NC)[C@@H](C)O)[C@@H](C)CC)C(=O)N[C@@H](C)C(=O)N[C@@H](CCCCNC(=O)CNC(=O)CNC(=O)CNC(=O)CNC(=O)CNC(=O)CCCCCCCCCCCCCCCCC(=O)O)C(=O)N[C@@H](CC(=O)O)C(=O)N[C@@H](CCCNC(=N)N)C(=O)NC(C)(C)C(=O)N[C@@H](C)C(=O)N[C@@H](CCC(N)=O)C(=O)NC(C)(C)C(=O)N[C@@H](CC(=O)O)C(=O)N[C@@H](Cc1ccccc1)C(=O)N[C@H](C(=O)N[C@@H](CC(N)=O)C(=O)N[C@@H](Cc1c[nH]c2ccccc12)C(=O)N[C@@H](CC(C)C)C(=O)N[C@@H](CC(C)C)C(=O)N[C@@H](C)C(=O)N[C@@H](CCC(N)=O)C(=O)N[C@@H](CO)C(=O)N1CCC[C@H]1C(=O)N[C@@H](CO)C(=O)N[C@@H](CO)C(=O)NCC(=O)N[C@@H](C)C(=O)N1CCC[C@H]1C(=O)N1CCC[C@H]1C(=O)N1CCC[C@H]1C(=O)N[C@@H](CO)C(N)=O)C(C)C` [Compound 38], for which the solubility was ≥ 30 mg/mL in the series “physchem” (pH 7.4, aqueous buffer, pH 7.4 Phosphate Buffer - Solubility, 200 mM Phosphate buffer pH 7.4) and ≥ 15 mg/mL in “physchem” (pH 7.4, solubility in phosphate buffer at pH 7.4, 200 mM phosphate buffer pH 7.4). Further, the midpoint of the response at human GLP-1R (Human GLP1R cAMP EC50, HEK293T (nM)), the EC50, lay at 45.7 nM. Moreover, the “Oral Glucose Tolerance Test Percent decrease in blood glucose AUC (%) over 60 mins” value with C57BL/6J mice is listed as 97% (3 nmol/kg).
For the compound `CC[C@H](C)[C@H](NC(=O)[C@H](CO)NC(=O)[C@H](Cc1ccc(O)cc1)NC(=O)[C@H](CC(=O)O)NC(=O)[C@H](CO)NC(=O)[C@@H](NC(=O)[C@H](Cc1ccccc1)NC(=O)[C@@H](NC(=O)CNC(=O)[C@H](CCC(=O)O)NC(=O)C(C)(C)NC(=O)[C@H](Cc1ccc(O)cc1)NC)[C@@H](C)O)[C@@H](C)CC)C(=O)N[C@@H](C)C(=O)N[C@@H](CCCCNC(=O)CNC(=O)CNC(=O)CNC(=O)CNC(=O)CNC(=O)CCCCCCCCCCCCCCCCC(=O)O)C(=O)N[C@@H](CC(=O)O)C(=O)N[C@@H](CCCNC(=N)N)C(=O)NC(C)(C)C(=O)N[C@@H](C)C(=O)N[C@@H](CCC(N)=O)C(=O)NC(C)(C)C(=O)N[C@@H](CC(=O)O)C(=O)N[C@@H](Cc1ccccc1)C(=O)N[C@H](C(=O)N[C@@H](CC(N)=O)C(=O)N[C@@H](Cc1c[nH]c2ccccc12)C(=O)N[C@@H](CC(C)C)C(=O)N[C@@H](CC(C)C)C(=O)N[C@@H](C)C(=O)N[C@@H](CCC(N)=O)C(=O)N[C@@H](CO)C(=O)N1CCC[C@H]1C(=O)N[C@@H](CO)C(=O)N[C@@H](CO)C(=O)NCC(=O)O)C(C)C` [Compound 71], the EC50 at human GLP-1R (setting [1]) was 34.7 nM. The “Oral Glucose Tolerance Test Percent decrease in blood glucose AUC (%) over 60 mins” value with C57BL/6J mice was 68% (3 nmol/kg).
